Laboratory results as given in patent publication US20260116868A1 (Arcus Biosciences, Inc., priority 2023, published 2026).

Experiments:
[1] = target: T1, Cbl-b (Homo sapiens, UniProt Q13191); experiment: Cbl-b probe displacement HTRF binding assay; conditions: 0.4 nM Cbl-b, 150 nM BODIPY probe
T1 construct: biotin (biotinylated protein)
Procedure, shortened: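 Compound competes with BODIPY probe (150 nM) for biotinylated Cbl-b (0.4 nM) in HEPES/NaCl/Triton/TCEP/BSA buffer; 60 min preincubation, 15 min with probe, room temperature. Tb-streptavidin HTRF read; % displacement vs DMSO and no-protein controls, IC50 from four-parameter fit.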

[2] = system: Jurkat cells; experiment: IL-2 secretion assay in Jurkat cells activated with CD3/CD28 T Cell Activator; format: cell-based; conditions: Homo sapiens; Jurkat cells, CD3/CD28 T Cell Activator, 24 h, IL-2 AlphaLISA; read-out: IL-2 Secretion (EC50)
Procedure, shortened: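 Jurkat cells in Opti-MEM were preincubated 1 h at 37° C with compound (final 10 μM to 300 pM, 16-point 1:2 dilution), then activated with human CD3/CD28 T Cell Activator for 24 h at 37° C. Supernatant IL-2 measured by AlphaLISA; EC50 from 4-parameter logistic fit.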

T1 sequence (Q13191 whole entry, species assumed): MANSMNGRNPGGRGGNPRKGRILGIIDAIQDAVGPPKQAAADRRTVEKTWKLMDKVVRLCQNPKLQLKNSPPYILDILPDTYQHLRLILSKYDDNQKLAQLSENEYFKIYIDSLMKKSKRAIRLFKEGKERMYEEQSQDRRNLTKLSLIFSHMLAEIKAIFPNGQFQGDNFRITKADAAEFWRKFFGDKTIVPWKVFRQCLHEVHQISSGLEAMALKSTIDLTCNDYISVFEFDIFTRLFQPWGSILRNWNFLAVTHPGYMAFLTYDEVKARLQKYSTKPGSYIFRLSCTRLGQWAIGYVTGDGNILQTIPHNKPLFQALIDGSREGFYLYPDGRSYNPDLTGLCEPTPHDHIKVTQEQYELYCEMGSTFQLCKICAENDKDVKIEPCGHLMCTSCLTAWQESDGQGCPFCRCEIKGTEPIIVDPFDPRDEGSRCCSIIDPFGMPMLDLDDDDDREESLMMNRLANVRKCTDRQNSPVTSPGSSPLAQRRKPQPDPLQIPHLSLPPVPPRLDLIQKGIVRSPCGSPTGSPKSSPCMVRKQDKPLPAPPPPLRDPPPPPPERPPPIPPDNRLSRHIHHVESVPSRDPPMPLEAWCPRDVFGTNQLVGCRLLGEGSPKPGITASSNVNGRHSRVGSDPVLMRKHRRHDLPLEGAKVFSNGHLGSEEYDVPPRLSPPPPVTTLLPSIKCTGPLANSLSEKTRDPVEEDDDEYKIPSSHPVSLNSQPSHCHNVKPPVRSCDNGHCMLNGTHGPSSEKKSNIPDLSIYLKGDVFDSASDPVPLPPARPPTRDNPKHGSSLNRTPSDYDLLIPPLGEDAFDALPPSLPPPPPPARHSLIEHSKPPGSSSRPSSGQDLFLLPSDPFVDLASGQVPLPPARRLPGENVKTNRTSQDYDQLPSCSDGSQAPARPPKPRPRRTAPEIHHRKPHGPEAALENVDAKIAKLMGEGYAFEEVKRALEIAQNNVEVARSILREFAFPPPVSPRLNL

SMILES	IC50 [1]	EC50 [2]
C[C@H]1CCCN(Cc2cc(C(=O)Nc3cc(-c4ccc(F)cc4-c4nncn4C)cc(C4CC4)n3)c(=O)n(CC3CC3)c2)C1 [Example 56, N-[6-cyclopropyl-4-[4-fluoro-2-(4-methyl-1,2,4-triazol-3-yl)phenyl]pyridin-2-yl]-1-(cyclopropylmethyl)-5-[[(3S)-3-methylpiperidin-1-yl]methyl]-2-oxopyridine-3-carboxamide]	< 100 nM	< 100 nM
CC(C)n1cc(CN2CCC[C@H](C)C2)cc(C(=O)Nc2cc(-c3ccc(F)cc3-c3nncn3C)cc(C3CC3)n2)c1=O [Example 57, N-[6-cyclopropyl-4-[4-fluoro-2-(4-methyl-1,2,4-triazol-3-yl)phenyl]pyridin-2-yl]-5-[[(3S)-3-methylpiperidin-1-yl]methyl]-2-oxo-1-propan-2-ylpyridine-3-carboxamide]	< 100 nM	< 100 nM
C[C@H]1CCCN(Cc2cc(C(=O)Nc3cc(-c4ccc(F)cc4-c4nncn4C)cc(C4CC4)n3)c(=O)n(CC(F)(F)F)c2)C1 [Example 58, N-[6-cyclopropyl-4-[4-fluoro-2-(4-methyl-1,2,4-triazol-3-yl)phenyl]pyridin-2-yl]-5-[[(3S)-3-methylpiperidin-1-yl]methyl]-2-oxo-1-(2,2,2-trifluoroethyl)pyridine-3-carboxamide]	< 100 nM	< 100 nM
C[C@H]1CCCN(Cc2cc(C(=O)Nc3cc(-c4ccc(F)cc4-c4nncn4C)cc(C4CC4)n3)c(=O)n(CCO)c2)C1 [Example 59, N-[6-cyclopropyl-4-[4-fluoro-2-(4-methyl-1,2,4-triazol-3-yl)phenyl]pyridin-2-yl]-1-(2-hydroxyethyl)-5-[[(3S)-3-methylpiperidin-1-yl]methyl]-2-oxopyridine-3-carboxamide]	< 100 nM	< 100 nM
C[C@H]1CCCN(Cc2cc(C(=O)Nc3cc(-c4ccc(F)cc4-c4nncn4C)cc(C4CC4)n3)c(=O)n(CC3CCOCC3)c2)C1 [Example 60, N-[6-cyclopropyl-4-[4-fluoro-2-(4-methyl-1,2,4-triazol-3-yl)phenyl]pyridin-2-yl]-5-[[(3S)-3-methylpiperidin-1-yl]methyl]-1-(oxan-4-ylmethyl)-2-oxopyridine-3-carboxamide]	< 100 nM	100 to 1000 nM
CC(C)Cn1cc(CN2CCC[C@H](C)C2)cc(C(=O)Nc2cc(-c3ccc(F)cc3-c3nncn3C)cc(C3CC3)n2)c1=O [Example 61, N-[6-cyclopropyl-4-[4-fluoro-2-(4-methyl-1,2,4-triazol-3-yl)phenyl]pyridin-2-yl]-5-[[(3S)-3-methylpiperidin-1-yl]methyl]-1-(2-methylpropyl)-2-oxopyridine-3-carboxamide]	< 100 nM	< 100 nM
C[C@H]1CCCN(Cc2cc(C(=O)Nc3cc(-c4ccc(F)cc4-c4nncn4C)cc(C4CC4)n3)c(=O)n(CC3CCC3)c2)C1 [Example 62, 1-(cyclobutylmethyl)-N-[6-cyclopropyl-4-[4-fluoro-2-(4-methyl-1,2,4-triazol-3-yl)phenyl]pyridin-2-yl]-5-[[(3S)-3-methylpiperidin-1-yl]methyl]-2-oxopyridine-3-carboxamide]	< 100 nM	< 100 nM
COCCNCc1cc(C(=O)Nc2cc(-c3ccc(C#N)cc3-c3nc(C#N)cn3C)cc(C3CC3)n2)c(=O)n(CC2CC2)c1 [Example 63, N-{4-[4-cyano-2-(4-cyano-1-methyl-2-imidazolyl)phenyl]-6-cyclopropyl-2-pyridyl}-1-(cyclopropylmethyl)-5-[(2-methoxyethylamino)methyl]-2-oxo-1,2-dihydronicotinamide]	< 100 nM	100 to 1000 nM
COCCNCc1cc(C(=O)Nc2cc(-c3ccc(C#N)cc3-c3ncoc3C)cc(C3CC3)n2)c(=O)n(CC2CC2)c1 [Example 64, N-{4-[4-cyano-2-(5-methyl-1,3-oxazol-4-yl)phenyl]-6-cyclopropyl-2-pyridyl}-1-(cyclopropylmethyl)-5-[(2-methoxyethylamino)methyl]-2-oxo-1,2-dihydronicotinamide]	< 100 nM	100 to 1000 nM
